Measurements as given in patent US20240264150A1, “METHODS FOR ASSIGNING A PHENOTYPIC SIGNATURE FOR DIAGNOSTIC AND THERAPEUTIC APPLICATIONS” (DEUTSCHES ZENTRUM FÜR NEURODEGENERATIVE ERKRANKUNGEN E.V. …, priority 2020, published 2024).

Tests used:
Format in all cases: cell-based, human
[1] = test system: inflammasome activation by LPS+ATP; experiment: Benchmark experiment, 34-plex Luminex cytokine assay; conditions: for IL1b release (Luminex): LPS+ATP
Text: (§1) FIG. 24: Added-Value-1. Higher precision and accuracy of the present technology compared to Luminex cytokine assays. We tested the IL1beta- and TNFalpha release performance on the present assay platform (integrated as HTRF assays from cisbio/PerkinElmer into the inventive workflow) (B) in comparison to the Luminex cytokine assay technology (A). […] (2) Due to its higher precision and accuracy, the inventive technology allowed to disclose distinct compound (Cmpd) effects on donor-specific responses which was not achieved by the Luminex technology despite its higher nominal assay ranges as indicated by the upper and lower LoD's (tables on the left in A, B). (3) Despite higher nominal assay ranges of Luminex cytokine tests compared to present technology cytokine release LoD's (dotted lines), donor-specific response ranges were solely resolved by the inventive technology and could not be identified by the Luminex assay. (4) Despite higher nominal assay ranges of Luminex cytokine tests compared to present technology cytokine release LoD's, the inventive technology covered a larger assay window as indicated by the ovals on the TNFa-release box plot y-axes in (A) and (B).
(§2) To benchmark the inventive technology in the context of established state-of-the-art cytokine assays in the field of innate immune response analyses, a product benchmarking experiment was conducted. Towards this end, a 34-plex, off-the-shelf Luminex cytokine assay kit was tested in comparison to the present assay platform which in this embodiment integrates cytokine release data with image-based readout analyses leading to increased knowledge and added scientific value.
(§3) In the benchmarking experiment, innate immune reactions were assessed by classical cytokine release assays, i.e. the Luminex assay technology, and compared to the present platform which allows an in-depth analysis of immune responses by the combination and integration of cytokine release data and image-based multi-parametric readouts. Since the present assay platform represents a functional assay, the following conditions were analyzed, untreated, LPS-priming and priming-activation by LPS+ATP. Furthermore, the effects of selected reference compounds on the innate immune responses were tested, i.e. CRID3/MCC950 (NLRP3 inflammasome inhibitor), P22077 (ubiquitin protease inhibitor), 4SC202/Domatinostat (class 1 HDAC inhibitor), MI-2 (MALT1 inhibitor, NLRP3 inhibitor), A438079 (P2X7 receptor antagonist), VX-765 (CASP1 inhibitor) and Z-VAD-OH-FMK (pan-CASP inhibitor). The selection of the reference compounds was based on compound-specific effects on captured phenotypes obtained by the present technology (Table 3). Captured phenotypes obtained by multi-parametric and image-based readout constitute an added value provided by the present technology.

[2] = test system: inflammasome activation by LPS+ATP; experiment: Benchmark experiment, present assay platform (HTRF cytokine release plus image-based multi-parametric readouts), LPS priming and LPS+ATP activation; conditions: for inflammasome activation / percentage of IL1beta-positive cells / IL1beta release: LPS+ATP (LPS_Activator); for IL1beta release: vs DMSO control; for TNFa-positive cells percentage: LPS and LPS_Activator conditions, vs DMSO
Text: as §1, §2, §3

PBMC = experiment: De-risking of cyclooxygenase (COX)-modulators (pain-killers) in the PBMC test system: image-based and supernatant cytokine readouts; conditions: for alteration of the collective phenotypic signature: 54 COX-modulators, three independent experiments, normalized to untreated control
Procedure: 54 pain-killers were tested in three independent experiments. […] The results were normalized to the untreated control group. Image-based assay read outs: a) “Active”, ratio of cells presenting mounted inflammasome, b) “TNFaPosRate”, ratio of cells showing intracellular TNFalpha expression, c) “TNFa specs/cell”, number of TNFalpha spots within TNFalpha positive cells, d) “Cells”, total number of cells. Homogenous assay read outs: e) “TNFa see”, TNFalpha concentration in the supernatant in ng/ml, f) “IL1b”, IL1beta concentration in the supernatant in ng/ml.
54 compounds were tested, which are known as cyclooxygenase (COX)-Modulators. Most of the compounds were already on market or in drug development process. A unique collective phenotypic signature of this drug class was identified. There was no alteration of assay parameters, meaning that common Cox-modulators should have no effect on the innate immune response in the test system provided by the present invention. […] Bufexamac was withdrawn from market 2010 due to allergic reaction and was further proposed in 2017 as co-treatment agent (TNFa binder) for modulators of TNFa synthesis. […] Xanthohumol, a chalcone isolated from Humulus lupus, is currently in clinical trial phase 1. Currently, there is no information about induced adverse effects.
The adverse effects of all three compounds were not identified during the safety/toxicity assessment in preclinical lead optimization or in clinical trials. Current safety testing during preclinical drug development was not able to detect the adverse modulation of innate immune response.

Compound | IL1b release (Luminex) [1] | inflammasome activation ([2]; image-based) | percentage of IL1beta-positive cells ([2]; image-based) | IL1beta release [2] | alteration of the collective phenotypic signature (PBMC) | further results
Z-VAD-OH-FMK | block | did not show any effect | low percentage | block |  | 
COc1cc(O)c(CC=C(C)C)c(O)c1C(=O)/C=C/c1ccc(O)cc1 [Xanthohumol] |  |  |  |  | show alteration of the collective phenotypic signature | 
COCCOc1nc(-c2ccc(Cl)c(Cl)c2)n(-c2ccc(NC(=O)CCl)cc2)n1 [MI-2] | block | complete block | marked increase | complete block |  | TNFa release (Luminex) [1]: partial block of TNFa release with limited resolution; TNFa-positive cells percentage [2]: not affected; percentage of TNFa-multispot-positive cells ([2]; image-based): robust increase; TNFa release ([2]; present assay): partial block
CC(C(=O)O)c1ccc(C(=O)c2cccs2)cc1 (centres unmarked) [Subrofen] |  |  |  |  | show alteration of the collective phenotypic signature | cytokine release (II. 1b) (PBMC; supernatant): strong decrease
CC(C)(O)c1coc(S(=O)(=O)NC(=O)Nc2c3c(cc4c2CCC4)CCC3)c1 [CRID3, CRID3/MCC950] | block | complete block | marked increase | complete block |  | 
CCCCOc1ccc(CC(=O)NO)cc1 [Bufexamac] |  |  |  |  | show alteration of the collective phenotypic signature | TNFa binder effect (PBMC): effect was proofed
Clc1cccc(-c2nnnn2Cc2cccnc2)c1Cl [A-438079] | block | complete block | marked increase | block |  | TNFa-positive cells percentage [2]: no impact
